Experimental data as given in BindingDB's records for doi:10.1016/s0028-3908(97)00049-x (Roche Bioscience, 1997).

Columns and labels:
[1] = target: T1, Alpha-1B adrenergic receptor (Rattus norvegicus, UniProt P15823)
T1 sequence (P15823 whole entry): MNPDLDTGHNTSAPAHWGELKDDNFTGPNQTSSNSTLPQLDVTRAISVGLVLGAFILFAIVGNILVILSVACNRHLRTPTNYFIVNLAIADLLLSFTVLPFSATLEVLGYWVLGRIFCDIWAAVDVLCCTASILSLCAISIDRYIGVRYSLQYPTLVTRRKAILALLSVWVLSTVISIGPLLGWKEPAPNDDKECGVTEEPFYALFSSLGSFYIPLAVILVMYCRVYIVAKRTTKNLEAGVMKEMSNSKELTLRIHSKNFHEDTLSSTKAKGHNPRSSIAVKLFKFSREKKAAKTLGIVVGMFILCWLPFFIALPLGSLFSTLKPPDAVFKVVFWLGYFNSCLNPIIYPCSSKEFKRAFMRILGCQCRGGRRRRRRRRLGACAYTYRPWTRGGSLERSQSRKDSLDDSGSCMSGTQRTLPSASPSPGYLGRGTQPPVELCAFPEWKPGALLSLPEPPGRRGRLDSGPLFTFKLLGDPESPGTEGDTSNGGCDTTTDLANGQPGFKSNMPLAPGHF

[2] = target: 5-hydroxytryptamine receptor 7 (Cavia porcellus, UniProt P50407)
Substance-P receptor = Substance-P receptor (Homo sapiens, UniProt P25103)
[3] = target: T2, Muscarinic acetylcholine receptor M1 (Rattus norvegicus, UniProt P08482)
T2 sequence (P08482 whole entry): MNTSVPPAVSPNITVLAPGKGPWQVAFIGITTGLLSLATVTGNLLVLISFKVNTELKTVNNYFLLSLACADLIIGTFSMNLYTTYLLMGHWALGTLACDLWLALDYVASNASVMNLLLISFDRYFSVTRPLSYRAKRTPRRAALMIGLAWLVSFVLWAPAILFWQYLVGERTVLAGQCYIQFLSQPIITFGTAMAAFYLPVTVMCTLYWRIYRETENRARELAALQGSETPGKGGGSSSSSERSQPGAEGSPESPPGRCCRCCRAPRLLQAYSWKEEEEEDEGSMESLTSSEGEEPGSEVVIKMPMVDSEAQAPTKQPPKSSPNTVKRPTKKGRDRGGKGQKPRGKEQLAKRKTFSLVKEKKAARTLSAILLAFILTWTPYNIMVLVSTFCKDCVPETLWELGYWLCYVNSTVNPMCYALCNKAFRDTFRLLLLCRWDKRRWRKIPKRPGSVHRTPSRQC

[4] = target: Beta-2 adrenergic receptor (Rattus norvegicus, UniProt P10608)
[5] = target: T3, Beta-1 adrenergic receptor (Oryctolagus cuniculus, UniProt A0A4Y6F0G0)
T3 sequence (A0A4Y6F0G0 whole entry): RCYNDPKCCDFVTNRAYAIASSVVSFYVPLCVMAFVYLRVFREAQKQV

[6] = target: T4, Alpha-2B adrenergic receptor (Rattus norvegicus, UniProt P19328)
T4 sequence (P19328 whole entry): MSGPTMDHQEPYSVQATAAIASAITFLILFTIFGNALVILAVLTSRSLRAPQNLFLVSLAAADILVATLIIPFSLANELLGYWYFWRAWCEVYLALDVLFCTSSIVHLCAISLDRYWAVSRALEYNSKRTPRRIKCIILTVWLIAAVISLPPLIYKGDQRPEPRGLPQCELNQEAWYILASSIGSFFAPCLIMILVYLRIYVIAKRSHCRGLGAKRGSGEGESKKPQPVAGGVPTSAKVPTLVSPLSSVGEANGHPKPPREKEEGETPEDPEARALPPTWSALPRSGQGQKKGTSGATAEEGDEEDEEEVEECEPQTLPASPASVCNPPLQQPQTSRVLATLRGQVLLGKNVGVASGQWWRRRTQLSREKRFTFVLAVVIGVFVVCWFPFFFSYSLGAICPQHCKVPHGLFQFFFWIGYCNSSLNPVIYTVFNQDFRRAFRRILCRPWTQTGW

[7] = target: T5, 5-hydroxytryptamine receptor 3A (Mus musculus, UniProt P23979)
T5 sequence (P23979 whole entry): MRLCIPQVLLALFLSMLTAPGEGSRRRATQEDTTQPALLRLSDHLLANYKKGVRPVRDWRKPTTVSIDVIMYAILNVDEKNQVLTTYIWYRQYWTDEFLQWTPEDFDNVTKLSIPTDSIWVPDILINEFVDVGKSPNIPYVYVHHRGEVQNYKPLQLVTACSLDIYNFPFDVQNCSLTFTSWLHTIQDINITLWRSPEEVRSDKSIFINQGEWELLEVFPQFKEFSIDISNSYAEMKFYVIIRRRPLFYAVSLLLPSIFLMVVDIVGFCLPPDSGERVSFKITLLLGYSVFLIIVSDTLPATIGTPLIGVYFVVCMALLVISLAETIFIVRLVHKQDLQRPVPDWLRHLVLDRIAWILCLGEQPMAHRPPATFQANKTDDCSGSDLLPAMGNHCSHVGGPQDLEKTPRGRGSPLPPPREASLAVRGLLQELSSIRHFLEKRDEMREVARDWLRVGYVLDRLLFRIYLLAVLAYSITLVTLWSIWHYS

[8] = target: T6, 5-hydroxytryptamine receptor 1A (Rattus norvegicus, UniProt P19327)
T6 sequence (P19327 whole entry): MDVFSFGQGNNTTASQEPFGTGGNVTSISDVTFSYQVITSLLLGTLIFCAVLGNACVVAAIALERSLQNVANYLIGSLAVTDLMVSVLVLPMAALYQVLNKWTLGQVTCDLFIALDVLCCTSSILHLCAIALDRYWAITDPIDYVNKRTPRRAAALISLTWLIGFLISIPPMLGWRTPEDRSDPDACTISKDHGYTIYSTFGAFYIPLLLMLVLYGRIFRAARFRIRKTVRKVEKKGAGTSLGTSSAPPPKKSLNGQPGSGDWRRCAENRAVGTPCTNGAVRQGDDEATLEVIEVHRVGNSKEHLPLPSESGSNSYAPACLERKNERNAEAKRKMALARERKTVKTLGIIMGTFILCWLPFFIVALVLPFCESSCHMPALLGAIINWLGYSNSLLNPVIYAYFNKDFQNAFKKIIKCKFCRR

[9] = target: T7, Alpha-2A adrenergic receptor (Oryctolagus cuniculus, UniProt Q5ZQK3)
T7 sequence (Q5ZQK3 whole entry): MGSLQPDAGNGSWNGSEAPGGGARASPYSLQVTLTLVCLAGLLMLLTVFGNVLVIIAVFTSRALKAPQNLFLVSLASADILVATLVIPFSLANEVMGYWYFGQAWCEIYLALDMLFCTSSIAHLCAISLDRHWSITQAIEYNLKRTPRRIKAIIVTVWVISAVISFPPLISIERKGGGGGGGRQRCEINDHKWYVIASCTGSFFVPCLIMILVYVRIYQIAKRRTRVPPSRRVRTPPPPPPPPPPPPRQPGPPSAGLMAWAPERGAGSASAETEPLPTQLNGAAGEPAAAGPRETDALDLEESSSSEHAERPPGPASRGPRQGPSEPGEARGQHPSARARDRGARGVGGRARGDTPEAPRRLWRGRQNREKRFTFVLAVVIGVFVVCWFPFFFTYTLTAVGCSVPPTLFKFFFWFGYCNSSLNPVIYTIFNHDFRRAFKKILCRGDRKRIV

Glutamate receptor 3 = Glutamate receptor 3 (Rattus norvegicus, UniProt P19492)
[10] = target: Glutamate receptor ionotropic, NMDA 1 (Rattus norvegicus, UniProt P35439)
[11] = target: Muscarinic acetylcholine receptor M3 (Rattus norvegicus, UniProt P08483)
[12] = target: Gamma-aminobutyric acid receptor subunit alpha-1 (Rattus norvegicus, UniProt P62813)
[13] = target: Kappa-type opioid receptor (Cavia porcellus, UniProt P41144)
[14] = target: T8, Muscarinic acetylcholine receptor M2 (Rattus norvegicus, UniProt P10980)
T8 sequence (P10980 whole entry): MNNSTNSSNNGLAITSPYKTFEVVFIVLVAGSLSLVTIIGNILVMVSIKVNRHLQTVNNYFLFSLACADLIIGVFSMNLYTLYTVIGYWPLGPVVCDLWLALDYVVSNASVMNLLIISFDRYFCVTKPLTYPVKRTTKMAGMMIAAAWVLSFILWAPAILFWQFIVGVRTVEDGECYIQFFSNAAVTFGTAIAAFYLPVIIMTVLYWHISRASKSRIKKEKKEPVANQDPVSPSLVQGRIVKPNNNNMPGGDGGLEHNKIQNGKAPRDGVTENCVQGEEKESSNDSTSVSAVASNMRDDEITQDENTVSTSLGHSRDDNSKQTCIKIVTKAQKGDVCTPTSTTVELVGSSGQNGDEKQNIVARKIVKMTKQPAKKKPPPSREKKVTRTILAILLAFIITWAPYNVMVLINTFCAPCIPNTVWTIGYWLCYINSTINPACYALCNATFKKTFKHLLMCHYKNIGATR

Mu-type opioid receptor = Mu-type opioid receptor (Cavia porcellus, UniProt P97266)
Sequence of Mu-type opioid receptor (P97266 whole entry): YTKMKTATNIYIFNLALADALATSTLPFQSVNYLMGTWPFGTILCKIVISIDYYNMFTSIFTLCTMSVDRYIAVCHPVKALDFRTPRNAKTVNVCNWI

Sequence of Beta-2 adrenergic receptor (P10608 whole entry): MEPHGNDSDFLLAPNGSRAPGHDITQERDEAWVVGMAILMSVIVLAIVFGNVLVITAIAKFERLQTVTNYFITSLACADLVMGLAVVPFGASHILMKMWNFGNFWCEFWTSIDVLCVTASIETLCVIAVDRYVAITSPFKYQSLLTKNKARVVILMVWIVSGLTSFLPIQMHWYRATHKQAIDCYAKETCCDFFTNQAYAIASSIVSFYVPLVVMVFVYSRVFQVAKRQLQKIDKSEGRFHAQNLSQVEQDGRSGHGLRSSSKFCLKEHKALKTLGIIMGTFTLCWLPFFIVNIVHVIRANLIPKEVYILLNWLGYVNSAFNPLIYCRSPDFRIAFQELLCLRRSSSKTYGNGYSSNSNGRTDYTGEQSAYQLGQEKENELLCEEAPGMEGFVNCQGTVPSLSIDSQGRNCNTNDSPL
Sequence of Muscarinic acetylcholine receptor M3 (P08483 whole entry): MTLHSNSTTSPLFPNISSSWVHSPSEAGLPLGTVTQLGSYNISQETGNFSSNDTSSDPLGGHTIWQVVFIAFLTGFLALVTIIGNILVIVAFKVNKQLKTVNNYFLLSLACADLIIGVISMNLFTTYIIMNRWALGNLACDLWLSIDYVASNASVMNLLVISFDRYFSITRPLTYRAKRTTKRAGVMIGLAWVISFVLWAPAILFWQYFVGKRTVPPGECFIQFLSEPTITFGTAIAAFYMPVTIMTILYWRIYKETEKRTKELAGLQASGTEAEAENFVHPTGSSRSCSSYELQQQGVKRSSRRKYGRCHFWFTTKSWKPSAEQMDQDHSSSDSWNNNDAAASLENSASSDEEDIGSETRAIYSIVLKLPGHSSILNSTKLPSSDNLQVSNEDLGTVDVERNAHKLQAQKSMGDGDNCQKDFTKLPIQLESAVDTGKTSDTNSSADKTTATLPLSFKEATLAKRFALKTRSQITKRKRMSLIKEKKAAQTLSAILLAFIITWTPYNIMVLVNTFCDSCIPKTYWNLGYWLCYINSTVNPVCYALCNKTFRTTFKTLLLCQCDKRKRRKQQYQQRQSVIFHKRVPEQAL
Sequence of Kappa-type opioid receptor (P41144 whole entry): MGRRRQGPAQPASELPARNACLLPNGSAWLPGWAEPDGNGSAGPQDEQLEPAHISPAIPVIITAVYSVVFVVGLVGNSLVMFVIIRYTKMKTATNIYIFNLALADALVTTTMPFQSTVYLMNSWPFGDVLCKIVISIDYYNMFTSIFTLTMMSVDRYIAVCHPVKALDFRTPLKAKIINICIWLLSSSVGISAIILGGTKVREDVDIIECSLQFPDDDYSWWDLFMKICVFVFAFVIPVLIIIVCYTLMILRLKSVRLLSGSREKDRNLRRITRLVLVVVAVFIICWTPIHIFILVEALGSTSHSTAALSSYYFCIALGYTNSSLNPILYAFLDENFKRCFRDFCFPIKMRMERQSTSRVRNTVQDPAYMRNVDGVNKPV
Sequence of Glutamate receptor 3 (P19492 whole entry): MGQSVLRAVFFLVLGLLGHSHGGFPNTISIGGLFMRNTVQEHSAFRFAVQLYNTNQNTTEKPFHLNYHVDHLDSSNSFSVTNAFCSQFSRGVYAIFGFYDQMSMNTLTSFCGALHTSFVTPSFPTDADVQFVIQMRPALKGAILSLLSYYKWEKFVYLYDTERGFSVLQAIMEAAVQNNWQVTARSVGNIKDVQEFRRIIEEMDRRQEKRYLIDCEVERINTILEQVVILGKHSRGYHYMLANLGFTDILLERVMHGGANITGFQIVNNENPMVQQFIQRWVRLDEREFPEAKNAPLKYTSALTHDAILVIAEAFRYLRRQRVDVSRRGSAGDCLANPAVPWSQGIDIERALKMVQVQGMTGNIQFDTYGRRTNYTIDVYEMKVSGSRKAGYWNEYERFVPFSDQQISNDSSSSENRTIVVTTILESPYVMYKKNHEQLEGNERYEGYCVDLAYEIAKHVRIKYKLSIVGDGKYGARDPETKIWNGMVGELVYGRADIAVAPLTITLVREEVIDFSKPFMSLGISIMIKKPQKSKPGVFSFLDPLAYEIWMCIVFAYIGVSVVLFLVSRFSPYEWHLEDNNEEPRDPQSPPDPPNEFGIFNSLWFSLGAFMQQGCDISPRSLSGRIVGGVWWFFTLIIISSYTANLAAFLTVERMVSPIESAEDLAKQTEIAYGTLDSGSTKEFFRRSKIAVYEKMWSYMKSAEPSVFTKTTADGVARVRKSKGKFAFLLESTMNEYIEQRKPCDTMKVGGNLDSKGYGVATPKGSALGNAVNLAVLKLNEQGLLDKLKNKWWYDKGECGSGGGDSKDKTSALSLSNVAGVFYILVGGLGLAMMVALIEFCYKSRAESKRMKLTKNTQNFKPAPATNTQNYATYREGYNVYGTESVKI
Sequence of Substance-P receptor (P25103 whole entry): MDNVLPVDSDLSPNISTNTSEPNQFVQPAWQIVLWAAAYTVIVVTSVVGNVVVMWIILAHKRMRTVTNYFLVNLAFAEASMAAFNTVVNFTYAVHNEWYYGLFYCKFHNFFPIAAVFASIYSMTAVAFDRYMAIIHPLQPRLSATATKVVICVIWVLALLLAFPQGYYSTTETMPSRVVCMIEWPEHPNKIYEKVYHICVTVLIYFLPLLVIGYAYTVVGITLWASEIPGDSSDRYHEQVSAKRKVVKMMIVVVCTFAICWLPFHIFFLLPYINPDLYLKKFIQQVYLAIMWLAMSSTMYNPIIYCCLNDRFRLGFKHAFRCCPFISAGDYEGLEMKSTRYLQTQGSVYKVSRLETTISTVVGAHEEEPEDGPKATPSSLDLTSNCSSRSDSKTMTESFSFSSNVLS
Sequence of 5-hydroxytryptamine receptor 7 (P50407 whole entry): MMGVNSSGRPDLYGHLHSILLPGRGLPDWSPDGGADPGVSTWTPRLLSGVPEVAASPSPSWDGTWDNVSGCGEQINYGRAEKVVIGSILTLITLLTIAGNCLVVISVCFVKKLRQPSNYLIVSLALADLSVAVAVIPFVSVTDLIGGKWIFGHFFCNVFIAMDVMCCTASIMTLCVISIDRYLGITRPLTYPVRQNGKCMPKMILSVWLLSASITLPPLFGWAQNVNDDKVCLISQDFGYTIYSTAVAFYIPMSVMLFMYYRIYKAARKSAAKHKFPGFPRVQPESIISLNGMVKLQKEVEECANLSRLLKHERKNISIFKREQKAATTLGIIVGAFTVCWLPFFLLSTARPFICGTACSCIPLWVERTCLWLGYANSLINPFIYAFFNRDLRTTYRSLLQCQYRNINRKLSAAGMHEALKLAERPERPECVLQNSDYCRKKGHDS
Sequence of Gamma-aminobutyric acid receptor subunit alpha-1 (P62813 whole entry): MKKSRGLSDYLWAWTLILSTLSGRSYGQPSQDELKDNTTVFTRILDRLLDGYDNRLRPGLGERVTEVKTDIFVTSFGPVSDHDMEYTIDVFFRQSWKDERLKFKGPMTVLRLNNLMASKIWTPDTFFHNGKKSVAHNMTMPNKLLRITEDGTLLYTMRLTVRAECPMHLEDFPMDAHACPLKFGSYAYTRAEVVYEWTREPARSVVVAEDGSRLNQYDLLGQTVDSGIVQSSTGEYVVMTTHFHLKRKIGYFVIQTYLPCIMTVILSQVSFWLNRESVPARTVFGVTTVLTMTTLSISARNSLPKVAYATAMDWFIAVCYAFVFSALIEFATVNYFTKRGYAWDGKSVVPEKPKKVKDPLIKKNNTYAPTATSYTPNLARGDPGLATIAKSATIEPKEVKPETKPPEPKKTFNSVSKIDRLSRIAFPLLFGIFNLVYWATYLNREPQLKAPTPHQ

Compound: COc1cc(OC)c(C(=O)CCCCN2CCC3(CC2)NC(=O)NC3=O)cc1NS(=O)(=O)c1ccc(C(F)(F)F)cc1 [N-[5-[5-(2,4-Dioxo-1,3,8-triazaspiro[4.5]decan-8-yl)-1-oxopentyl]-2,4-dimethoxyphenyl]-4-(trifluoromethyl)benzenesulfonamide]
- Ki [1]: > 10 µM
- Ki [2]: > 10 µM
- Ki (Substance-P receptor): > 10 µM
- Ki [3]: > 10 µM
- Ki [4]: > 10 µM
- Ki [5]: > 10 µM
- Ki [6]: > 10 µM
- Ki [7]: > 10 µM
- Ki [8]: > 10 µM
- Ki [9]: 0.316 µM
- Ki (Glutamate receptor 3): > 10 µM
- Ki [10]: > 10 µM
- Ki [11]: > 10 µM
- Ki [12]: > 10 µM
- Ki [13]: > 10 µM
- Ki [14]: > 10 µM
- Ki (Mu-type opioid receptor): > 10 µM
